This passage reports melting point, EC50 and activity results from patent US20070054902A1, “Isoxazole derivatives as peroxisome proliferator-activated receptors agonists” (SHIONOGI & CO., LTD., priority 2003, published 2007).

For data set [1], the target named is T1, human PPARδ (hPPARδ) (Homo sapiens, UniProt Q03181).
T1 construct: δ:aa 139-C-end; expressed in transfected cells
T1 sequence (Q03181 139-441 limits assumed): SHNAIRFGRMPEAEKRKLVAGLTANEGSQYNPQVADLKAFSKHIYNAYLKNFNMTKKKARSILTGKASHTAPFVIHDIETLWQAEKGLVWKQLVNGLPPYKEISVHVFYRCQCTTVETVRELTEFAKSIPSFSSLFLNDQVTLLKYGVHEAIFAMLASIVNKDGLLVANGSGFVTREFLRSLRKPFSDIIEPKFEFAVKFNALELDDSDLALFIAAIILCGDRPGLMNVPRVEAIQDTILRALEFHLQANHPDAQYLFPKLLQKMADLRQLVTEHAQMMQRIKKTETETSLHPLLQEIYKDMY
As to the kind of experiment: Test for transcriptional activity of PPARδ (GAL4 chimeric transcription-factor reporter assay in CHO cells). It counts as cell-based. Conditions: GAL4-hPPARδ LBD chimeric reporter in CHO cells. The text has this: A chimeric transcription-factor assay, which is commonly used to detect nuclear receptor activity, was employed to measure PPAR transcriptional activity. Specifically, two plasmids, one that expresses the fusion protein of DNA binding domain of yeast transcription factor GAL4 and a ligand binding domain of a receptor, and a reporter plasmid were transiently transfected to CHO cells. The activity of the promoter containing a recognition sequence of GAL4 coded on the reporter plasmid was used as a parameter to estimate the activity of the receptor.
Then, each obtained cDNA-fragment was subcloned into pBIND vector (Promega) to construct a plasmid expressing the fusion protein with DNA binding domain of yeast transcription factor. GAL4. pG51uc vector (Promega) was used as a reporter plasmid.
Cell culturing and transfection: CHO cells were cultured in 10% FBS-αMEM. With a 96-well plate (Costar), CHO cells, that were dispersed with trypsin treatment, 20000 cells per well and the two plasmids obtained by the above procedure, 25 ng per well, were transfected with FuGene Reagent (Roche) by following the instruction of the manufacture.
Measurement of the transcriptional activity: CHO cells 100 μl per well, which were transfected as above, were dispensed into the wells in which a test compound dissolved in DMSO 0.5 μl was spotted in advance. After the cells and a test compound were cultured together for 24 hours in a CO2 incubator, the luciferase activity was measured by adding luciferase substrates, PicaGene LT2.0 (Toyo ink) 100 μl per well. LUMINOUS CT9000D (DIA-IATRON) is used to measure the activity.
For orientation: In a reporter assay the amount or activity of a reporter protein is the signal.

The target in data set [2] is T2, CYP2C9 (Homo sapiens, UniProt P11712).
T2 construct: the protein concentration, 0.25 mg/ml (human liver microsomes, 15 pol, Lot. 210296, XenoTech); tissue XenoTech Lot; 210296; host or cells: human liver microsomes (pooled)
T2 sequence (P11712 whole entry): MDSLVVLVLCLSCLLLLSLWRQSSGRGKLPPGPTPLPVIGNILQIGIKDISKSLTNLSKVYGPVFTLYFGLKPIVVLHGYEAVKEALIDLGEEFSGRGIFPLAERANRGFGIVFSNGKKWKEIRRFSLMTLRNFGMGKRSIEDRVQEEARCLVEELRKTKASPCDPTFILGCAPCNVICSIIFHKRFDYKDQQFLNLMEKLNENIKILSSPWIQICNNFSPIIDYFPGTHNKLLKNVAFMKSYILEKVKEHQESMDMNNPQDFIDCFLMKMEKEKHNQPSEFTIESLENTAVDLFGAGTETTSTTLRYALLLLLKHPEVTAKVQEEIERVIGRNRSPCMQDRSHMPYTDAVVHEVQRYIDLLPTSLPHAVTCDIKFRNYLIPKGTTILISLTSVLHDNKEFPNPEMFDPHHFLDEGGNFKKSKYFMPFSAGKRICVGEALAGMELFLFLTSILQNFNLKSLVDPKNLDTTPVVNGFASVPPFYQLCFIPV
Kind of data set: Test for inhibition of CYP2C9 enzyme (tolbutamide 4-position hydration, human liver microsomes). It counts as in vitro ADME. Conditions: pH 7.4, probe tolbutamide (14C labeled), 5 µM, human liver microsomes 0.25 mg/ml, 5 μM tolbutamide, 37° C., solvent control = 100%, read-out: Residual activity (%) CYP2C9. Here is the method: The reaction condition is as below. A substrate, 5 μM Tolbutamide (14C labeled compound); the reaction time, 30 minutes; the reaction temperature, 37° C.; the protein concentration, 0.25 mg/ml (human liver microsomes, 15 pol, Lot. 210296, XenoTech).
To the HEPES Buffer (pH 7.4), is added the protein (human liver microsomes), a drug solution and a substrate with the composition as the above. NADPH, which is a coenzyme of the reaction, is added thereto to start the reaction. After reacting for the fixed hours, 2N hydrochloric acid solution is added thereto and the reaction is stopped by removing protein. The remaining substrate drug and the generating metabolite are extracted with chloroform. The solvent is removed and the residue is redissolved in methanol. This solution was spotted on TLC, developed with chloroform:methanol: acetic acid=90:10:1, contacted on the imaging plate for about 14-20 hours and analyzed by BAS2000. As to the generation activity of the metabolite, Tolbutamide 4-potition hydration body, the activity in case that the solvent dissolving a drug is added to the reaction assay is used as a control (100%). The residual activity (%) in case that the test drug solution is added to the reaction is calculated.
In general terms: Microsomes from liver hold many membrane-bound enzymes, among them those of drug oxidation.

Where [3] appears, read: 24 hours, concentration showing 1/2 of maximum luciferase activity (Table 166).

Turning to `COCc1c(COc2ccc(OCC(=O)O)c(C)c2)noc1-c1ccc(C(F)(F)F)cc1` [α-5-1, {4-[4-Methoxymethyl-5-(4-trifluoromethylphenyl)-isoxazole-3-ylmethoxy]-2-methyl-phenoxy}-acetic acid], the melting point was in the range of 105 to 107 °C.

`COC(=O)COc1ccc(C(=O)CCc2noc(-c3ccc(C(F)(F)F)cc3)c2C)cc1C` [α-6-3-1, (2-Methyl-4-{3-[4-methyl-5-(4-trifluoromethylphenyl)-isoxazole-3-yl]-propionyl}-phenoxy)-acetic acid methyl ester] showed a melting point of 133 to 134 °C. Regarding `Cc1cc(C(=O)CCc2noc(-c3ccc(C(F)(F)F)cc3)c2C)ccc1OCC(=O)O` [α-6-4-1, (2-Methyl-4-{3-[4-methyl-5-(4-trifluoromethylphenyl)-isoxazole-3-yl]-propionyl}-phenoxy)-acetic acid], the melting point fell in the range of 191 to 194 °C.

Turning to `Cc1cc(SCc2noc(-c3ccc(C(F)(F)F)cc3)c2C)ccc1Cc1noc(=O)[nH]1` [α-7-3-1, 3-[2-methyl-4-[4-methyl-5-(4-trifluoromethylphenyl)isoxazole-3-ylmethylsulfanil]benzil]-4H-[1,2,4]oxadiazole-5-on], the melting point lay within 203 to 204.5 °C. In data set [1] (setting [3]), this molecule yielded an EC50 of 9.5 nM. For the molecule `Cc1cc(SCc2noc(-c3ccc(C(F)(F)F)cc3)c2C)ccc1OCC(=O)O` [β-1-3], the melting point fell in the range of 129 to 131 °C. In data set [1] (setting [3]), the EC50 turned out to be 9.9 nM. The molecule `Cc1cc(SCc2noc(-c3ccc(Cl)cc3)c2C)ccc1OCC(=O)O` [β-1-8] displayed a melting point of 157 to 159 °C. Also, in data set [1] (setting [3]), the EC50 came to 11 nM. Regarding `COCc1c(CSc2ccc(OCC(=O)O)c(C)c2)noc1-c1ccc(C(F)(F)F)cc1` [β-1-15], the melting point is 105 to 107 °C. Further, a half-maximal response in data set [1] (setting [3]) (EC50) required 1.5 nM.

As for `Cc1c(COc2ccc(C=CC(=O)O)cc2F)noc1-c1ccc(C(F)(F)F)cc1` [β-2-15, 3-{3-Fluoro-4-[4-methyl-5-(4-trifluoromethylphenyl)isoxazole-3-ylmethoxy]phenyl}acrylic acid], the melting point lay in the range of 261 to 262.5 °C. With `Cc1cc(SCc2cc(-c3ccc(C(F)(F)F)cc3)on2)ccc1/C=C/C(=O)O` [β-2-38], the melting point was 179.5 to 181.5 °C. Besides, the midpoint of the response in data set [1] (24 hours (Table 168)), the EC50, lay at 35 nM. Also, the activity at 30 min in data set [2] was 47%. Turning to `Cc1c(COc2ccc3c(ccn3CC(=O)O)c2)noc1-c1ccc(C(F)(F)F)cc1` [β-3-1, {5-[4-Methyl-5-(4 trifluoromethylphenyl)isoxazole-3-ylmethoxy]indole-1-yl}acetic acid], the melting point fell in the range of 159 to 160 °C. In the case of `Cc1c(CSc2ccc3c(ccn3CC(=O)O)c2)noc1-c1ccc(C(F)(F)F)cc1` [β-4-1, {5-[4-Methyl-5-(4-trifluoromethylphenyl)isoxazole-3-ylmethylsulfanil]indole-1-yl}acetic acid], the melting point lay within 139 to 141 °C. For the same molecule, in data set [1] (setting [3]), the EC50 was 16 nM. `Cc1c(CSc2ccc(-c3sccc3C(=O)O)cc2)noc1-c1ccc(C(F)(F)F)cc1` [β-5-1, 2-{4-[4-Methyl-5-(4-trifluoromethylphenyl)isoxazole-3-ylmethylsulfanil]phenyl}thiophene-3-carboxylic acid] gave a melting point of 139 to 141 °C. Also, the EC50 in data set [1] (setting [3]) worked out at 14 nM.

In general, melting point refers to the temperature of the solid-liquid transition. As a reminder, the EC50 is the concentration needed to bring the measured effect to its halfway point. Higher therefore signals a need for much substance.
